From US20240041922A1, “METHODS AND COMPOSITIONS” (Monash University, priority 2020, published 2024)
Entries after “also recorded” stand apart in the source; their conditions may differ.

What was measured:
PAX7+ satellite cells = assay: Primary mouse myoblast mono- and co-cultures, PAX7+ satellite cell proliferation (EdU); type: cell-based; conditions: 100 nM inhibitor; for effect on macrophage-stimulated satellite cell proliferation: MB+macrophage co-culture; for effect on NAMPT-stimulated satellite cell proliferation: with hrNAMPT
Method: Larvae: Labelling and detection was carried out as previously described (Nguyen, P. D. et al. Muscle stem cells undergo extensive clonal drift during tissue growth via Meox1-mediated induction of G2 cell-cycle arrest. […] Cell culture: Cells were incubated for 1 h in media supplemented with 10 μM EdU. […] Cells were processed using the Click-iTTM EdU Alexa FluroTM 647 imaging Kit (Thermo Fisher) following the manufacturer's protocol. For isolation of primary mouse myoblasts, limb skeletal muscle from E17.5 C57/BL6J mice were minced and digested in 0.125% Trypsin at 37° C. for 20 min. […] Myoblasts were again depleted for fibroblasts prior to co-culturing on gelatin-coated 48 well plates in DMEM+20% FBS+10% L929-conditioned medium. 100,000 myoblasts were plated with either 7,500 MafB/c-Maf deficient (Maf-DKO) macrophages (Aziz, A., Soucie, E., Sarrazin, […]. MafB/c-Maf deficiency enables self-renewal of differentiated functional macrophages. […] For drug treatments, the media were supplemented with appropriate doses and cultured for 24 h.

C2C12 myoblasts = assay: C2C12 myoblast proliferation (EdU incorporation); type: cell-based, mouse; conditions: for effect on NAMPT-induced myoblast proliferation: co-administration with NAMPT, 6 h
Method: Larvae: Labelling and detection was carried out as previously described (Nguyen, P. D. et al. Muscle stem cells undergo extensive clonal drift during tissue growth via Meox1-mediated induction of G2 cell-cycle arrest. […] Cell culture: Cells were incubated for 1 h in media supplemented with 10 μM EdU. […] Cells were processed using the Click-iTTM EdU Alexa FluroTM 647 imaging Kit (Thermo Fisher) following the manufacturer's protocol. The mouse muscle cell line […]. Serial passaging and differentiation of myogenic cells isolated from dystrophic mouse muscle. Nature 270, 725 (1977) were cultured in growth media (Dulbecco's Modified Eagle Medium (4.5 g/l D-Glucose, No L Glutamine, No Sodium Pyruvate (Gibco))+20% Fetal Bovine Solution-One Shot (Gibco)+1% Glut Max 100x (Gibco)). Cells were maintained at 37° C., 5% CO2. Cells at 70% confluence, passage 8 were extracted from T75 flasks with 0.025% Tryspin EDTA (Gibco), neutralised in growth media, spun at 180×g for 5 min to pellet cells. The cells were then resuspended in 10 ml of fresh growth media. 500 μl of cells were plated on a 8-well on cover glass II (Sarstedt) chamber slide at a density of 1×10^3 cells/ml. Cells were left 4 h at 37° C. to re-attach. For drug treatments, the media were supplemented with appropriate doses and cultured for 6 h.

[1] = system: larval zebrafish skeletal muscle; assay: Larval zebrafish muscle regeneration by birefringence imaging; type: in vivo; conditions: larvae soaked in drug after needle stab injury
Method: 4dpf larvae were anaesthetized in 0.01% tricaine (MS-222) (Sigma-Aldrich) in Ringer's solution. Mechanical injures were targeted either to the dorsal or ventral myotome above the cloaca when the larvae is oriented dorsal to the top, anterior to the left. Needle-stick injury was carried out as previously described (Gurevich, D. B. el al. Asymmetric division of clonal muscle stem cells co-ordinate muscle regeneration in vivo. Science 353 6295 aad9969 (2016)). Briefly, the myotome was subjected to a single 30-gauge needle puncture that generates an extensive injury with many damaged muscle fibres. […]
Fixed and Immunostained cell culture samples were imaged on a Leica DMi8 inverted widefield microscope with a 10× objective. Birefringence imaging was carried out as previously described (Berger, J., Sztal, T. & Currie, P. D. Quantification of birefringence readily measures the level of muscle damage in zebrafish. Biochemical and biophysical research communications 423, 785-788 (2012)), using a Leica DM IRB upright microscope integrated with the Abrio software (CRI Hinds instruments) using a 5× objective. Images were analysed using the software Fiji^52, whereby the mean grey value of the injury site birefringence is normalised to the region before and after it to calculate relative birefringence of the wound site. […]

[2] = system: wound-resident muscle stem cells; assay: Larval zebrafish needle stab muscle injury, wound site proliferation (EdU); type: in vivo; conditions: needle stab injury, agent alone
Method: 4dpf larvae were anaesthetized in 0.01% tricaine (MS-222) (Sigma-Aldrich) in Ringer's solution. Mechanical injures were targeted either to the dorsal or ventral myotome above the cloaca when the larvae is oriented dorsal to the top, anterior to the left. Needle-stick injury was carried out as previously described (Gurevich, D. B. el al. Asymmetric division of clonal muscle stem cells co-ordinate muscle regeneration in vivo. Science 353 6295 aad9969 (2016)). Briefly, the myotome was subjected to a single 30-gauge needle puncture that generates an extensive injury with many damaged muscle fibres. For laser-induced injury, anaesthetised larvae were mounted in a thin layer of 1% low-melt agarose in Ringer's solution. Injuries were carried out using a UV-nitrogen laser pulsed through a coumarin 440 nm dye cell coupled to a Zeiss Axioplan microscope (MicroPoint Laser System, Andor Technology). On average a laser injury required pulses for 5-10 sec from laser beams focused through a 40× water immersion objective. For time-lapse analysis of the immediate response to injury, muscle fibre ablations were achieved using a SIM scanner (Olympus) at 790 nm and 200 msec dwell time at 100% laser power on an Olympus FVMPE-RS upright multi-photon microscope equipped with a 25×/1.05 water immersion objective. Injury-responding macrophages were tracked using the manual tracking plugin in Fiji.
(§1) Cell ablation was carried out as previously described (Pisharath, H. & Parsons, M. J. in Zebrafish 133-143 (Springer, 2009)) with minor modifications. Larvae at the appropriate stage were incubated in 5-10 mM metronidazole (Mtz) (Sigma-Aldrich) in Ringer's solution and daily refreshed until experimental end point. Drug treatments were carried out by incubating 4 dpf needle stick injured larvae in 5 and 10 μM cenicriviroc (CVC) (Med Chem Express) and 5 and 10 μM maraviroc (MVC) (Med Chem Express) in Ringer's solution immediately post injury and refreshed daily.
The effect of drug treatment on laser ablation muscle injury was assayed by treating larvae with 5 μM CVC for 2 h prior to injury and with larvae being maintained in the drug until experimental end point. […] Chemokine supplementation experiments were carried out in plasticware coated with 0.1% bovine serum albumin (BSA) overnight (rinsed in Ringer's solution prior to use) to minimise protein adsorption. Larvae were treated with 57 nM recombinant human visfatin (hrNAMPT(1)) (PeproTech), 57 nM recombinant murine CCL8/MCP-2 (mrCCL8) (PeproTech) and combinations with Mtz and CVC.
Larvae: Labelling and detection was carried out as previously described (Nguyen, P. D. et al. Muscle stem cells undergo extensive clonal drift during tissue growth via Meox1-mediated induction of G2 cell-cycle arrest. Cell Stem Cell 21, 107-119. e106 (2017))^55 with minor alteration. 6 dpf/2 dpi larvae were pulsed with 2.5 nM EdU (Thermo Fisher) for 1h and chased for a further 1.5 h prior to fixation. Cell culture: Cells were incubated for 1 h in media supplemented with 10 μM EdU. Following Edu pulse, C2C12 cells were fixed immediately, while primary mouse myoblast co-cultures were rinsed in PBS, replaced with media and incubated for a further 2 h following which the cells were fixed. Cells were processed using the Click-iT™ EdU Alexa Fluro™ 647 imaging Kit (Thermo Fisher) following the manufacturer's protocol.

Nampt = assay: NAD+/NADH levels after Nampt enzymatic inhibition; type: in vivo, zebrafish; conditions: 10 μM
macrophages = assay: Nitroreductase-mediated macrophage ablation by metronidazole, Tg(mpeg1:GAL4FF/UAS:NfsB-mCherry); type: in vivo, zebrafish
Method: as §1

larval zebrafish = assay: Tolerability of metronidazole in larval zebrafish; type: in vivo; conditions: 10 mM Mtz
Method: as §1

mmp9+/mpeg+ macrophages = assay: Metronidazole ablation of mmp9-expressing macrophages, TgBAC(mmp9:EGFP-NTR); type: in vivo, zebrafish
Method: as §1
In order to more directly implicate Cluster 2 macrophages in the regulation of regenerative muscle stem cell proliferation, we specifically ablated these cells during the repair process, using an alternative mmp9 promoter-driven transgenic line that expressed the nitroreductase enzyme fused to EGFP (TgBAC(mmp9:EGFP-NTR)^24). These larvae were subjected to a needle stab muscle injury at 4 dpf (0 dpi). At 1.75 dpi larvae were treated with 5 mM Mtz, a dosing that specifically ablated 77.94% of mmp9^+/mpeg^+-macrophages present in the injury zone (FIG. 10b-d). Specific ablation of these cells led to a significant skeletal muscle repair deficit (FIG. 3p-q) and a severe reduction in muscle stem cell proliferation to levels similar to those evident upon mpeg^+-dwelling macrophage ablation, documented above (FIG. 2f-h, FIG. 3r, FIG. 10e-g). Collectively, these analyses indicate that Cluster 2 contains a specific mmp9^+ muscle stem cell-associated, dwelling macrophage subset required for muscle stem cell proliferation during muscle regeneration

Compound	effect on macrophage-stimulated satellite cell proliferation (PAX7+ satellite cells)	effect on NAMPT-stimulated satellite cell proliferation (PAX7+ satellite cells)	effect on NAMPT-induced myoblast proliferation (C2C12 myoblasts)	muscle regeneration (birefringence) [1]	wound site muscle stem cell proliferation [2]	myoblast proliferation, factor added alone (C2C12 myoblasts; 6 h in growth media)	larval NAD+/NADH levels (Nampt)	time to start of macrophage ablation after Mtz addition (macrophages; 5 mM Mtz) [h]	macrophage ablation (macrophages; 5 mM Mtz for 24 h from 4 dpf, trunk macrophages at 5 dpf) [%]	time until majority of trunk macrophages ablated (macrophages; Mtz) [h]	lethality, needle stab injured larvae (larval zebrafish)	tolerability, uninjured larvae (larval zebrafish)	ablation of mmp9+/mpeg+ macrophages (mmp9+/mpeg+ macrophages; 5 mM Mtz at 1.75 dpi) [%]	number of mmp9+/mpeg+ macrophages in injury zone (mmp9+/mpeg+ macrophages; Mtz treated)	number of mmp9-/mpeg+ macrophages in injury zone (mmp9+/mpeg+ macrophages; Mtz treated)
maraviroc [MVC, reference compound]	pro-proliferative response is abolished	an effect that was abolished	abolishes NAMPT's pro-proliferative response; also recorded: proliferative response was blocked	marked regeneration deficit; also recorded: highly significant regeneration deficit	reduction in the proliferation of pax3a^+ myogenic stem cells; also recorded: reduction in the proliferation of par3a^+ myogenic stem cells										
N#CN=C(NCCCCCCOc1ccc(Cl)cc1)Nc1ccncc1 [GMX1778, reference compound]			does not impact its effect on myoblast proliferation; also recorded: did not affect the increased myoblast proliferation		had no effect on muscle stem cell proliferation in the injury zone; also recorded: did not alter muscle stem cell proliferation	no negative effect on the basal level of C2C12 proliferation	severe reduction in larval NAD^+/NADH levels								
CCCCOCCOc1ccc(-c2ccc3c(c2)/C=C(/C(=O)Nc2ccc([S@@+]([O-])Cc4cncn4CCC)cc2)CCCN3CC(C)C)cc1 [CVC, cenicriviroc, reference compound]	a response that is inhibited; also recorded: reduced satellite cell proliferation in MB+MΦ culture conditions to levels evident in MB alone or MB+3T3 cultures	pro-proliferative response is abolished; also recorded: an effect that was abolished	abolishes NAMPT's pro-proliferative response; also recorded: proliferative response was blocked	marked regeneration deficit; also recorded: highly significant regeneration deficit	proliferation is inhibited by CVC addition; also recorded: resulted in a proliferation deficit; also recorded: reduction in the proliferation of pax3a^+ myogenic stem cells; also recorded: reduction in the proliferation of par3a^+ myogenic stem cells										
Cc1ncc([N+](=O)[O-])n1CCO [Mtz, metronidazole]								3	77	10 to 13	significant lethality	able to tolerate	77.94	2.18±1.19	6.65±1.50
